Data from patent publication US12252488B2 (Nimbus Saturn, Inc., priority 2021, dated 2025).

Target: T1, HPK1 (Homo sapiens, UniProt Q92918)
T1 construct: purchased Invitrogen
Test: HPK1 biochemical enzyme assay (microfluidic mobility shift assay)
Conditions: 1000 uM (1 mM) ATP; Caliper mobility shift; 1.5 nM HPK1; 30 min preincubation; read-out: HPK1 1000UMATP caliper IC50
Method in brief: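 IC50 values, grouped into activity categories, come from 10-point titrations (top final 3 μM) preincubated 30 min with 1.5 nM enzyme and substrate at pH 7.4. ATP (1 mM), substrate (1 μM) and MgCl2 (5 mM) then added; after 60 min at RT, product separated by microfluidic mobility shift.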

T1 sequence (Q92918 whole entry): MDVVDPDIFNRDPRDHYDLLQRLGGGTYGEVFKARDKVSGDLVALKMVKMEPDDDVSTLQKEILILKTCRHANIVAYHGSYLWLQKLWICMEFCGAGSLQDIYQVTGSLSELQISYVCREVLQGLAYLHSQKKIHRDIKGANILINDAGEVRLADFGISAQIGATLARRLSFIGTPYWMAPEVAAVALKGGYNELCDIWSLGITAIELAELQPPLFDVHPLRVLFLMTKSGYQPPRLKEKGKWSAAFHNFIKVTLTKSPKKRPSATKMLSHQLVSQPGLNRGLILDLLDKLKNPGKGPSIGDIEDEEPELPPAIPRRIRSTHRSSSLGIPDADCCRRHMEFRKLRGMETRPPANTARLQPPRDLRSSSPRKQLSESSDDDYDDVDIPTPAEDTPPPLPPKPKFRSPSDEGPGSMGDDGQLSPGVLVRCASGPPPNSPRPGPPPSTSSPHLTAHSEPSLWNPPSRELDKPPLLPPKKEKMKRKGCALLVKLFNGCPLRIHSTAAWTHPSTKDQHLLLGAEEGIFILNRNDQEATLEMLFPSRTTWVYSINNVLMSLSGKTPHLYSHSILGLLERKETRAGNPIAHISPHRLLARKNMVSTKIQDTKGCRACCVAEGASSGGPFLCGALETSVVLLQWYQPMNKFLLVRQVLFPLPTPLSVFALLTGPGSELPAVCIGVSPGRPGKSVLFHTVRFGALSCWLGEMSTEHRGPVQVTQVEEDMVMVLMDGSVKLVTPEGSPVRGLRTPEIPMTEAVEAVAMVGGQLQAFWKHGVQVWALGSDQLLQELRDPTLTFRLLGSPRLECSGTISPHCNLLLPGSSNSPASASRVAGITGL

Row | SMILES | IC50 [nM]
1 | O=C(c1ccc(-c2cc(Nc3ccc(N4CCNCC4)cn3)c3c(=O)[nH]ccc3n2)c(F)c1)N1CC2CCC1CC2 [I-264, 2-[4-(3-azabicyclo [2.2.2]octane-3-carbonyl)-2-fluoro-phenyl]-4-[(5-piperazin-1-yl-2-pyridyl)amino]-6H-1,6-naphthyridin-5-one] | ≤ 100
2 | O=c1[nH]ccc2nc(-c3c(F)ccc4c3CCNC4)cc(Nc3cc(C4CCOC4)n[nH]3)c12 (stereo not shown) [I-265, 2-(6-fluoro-1,2,3,4-tetrahydro-isoquinolin-5-yl)-4-[(3-THF-3-yl-1H-pyrazol-5-yl)amino]-6H-1,6-naphthyridin-5-one] | ≤ 100
3 | CN1CCc2c(ccc(F)c2-c2cc(Nc3ccc(N4CCC(O)CC4)cn3)c3c(=O)[nH]ccc3n2)C1 [I-268, 2-(6-fluoro-2-methyl-3,4-dihydro-1H-isoquinolin-5-yl)-4-[[5-(4-hydroxy-1-piperidyl)-2-pyridyl]amino]-6H-1,6-naphthyridin-5-one] | > 1000
4 | O=C(c1cc(F)c(-c2cc(Nc3ccc(N4CCC(O)CC4)cn3)c3c(=O)[nH]ccc3n2)cc1C1CC1)N1CCCCC1 [I-270, 2-[5-cyclopropyl-2-fluoro-4-(piperidine-1-carbonyl)phenyl]-4-[[5-(4-hydroxy-1-piperidyl)-2-pyridyl]amino]-6H-naphthyridin-5-one] | ≤ 100
5 | Cn1ccnc1N1CCN(c2cc(Nc3ccc(N4CCC(O)CC4)cn3)c3c(=O)[nH]ccc3n2)CC1 [I-271, 4-[[5-(4-hydroxy-1-piperidyl)-2-pyridyl]amino]-2-[4-(1-methyl-imidazol-2-yl)piperazin-1-yl]-6H-1,6-naphthyridin-5-one] | ≤ 100
6 | O=c1[nH]ccc2nc(-c3ccc(C4CCCO4)cc3F)cc(Nc3ccc(N4CCC(O)CC4)cn3)c12 (stereo not shown) [I-276, 2-(2-fluoro-4-THF-2-yl-phenyl)-4-[[5-(4-hydroxy-1-piperidyl)-2-pyridyl]amino]-6H-1,6-naphthyridin-5-one] | > 1000

Further lines, results first:

Row | IC50 [nM] | SMILES
7 | 100 to 1000 | CN1CCN(c2ccc(Nc3cc(-c4ccc(C(=O)N5CC6CCC5CC6)cc4F)nc4cc[nH]c(=O)c34)nc2)CC1 [I-278, 2-[4-(3-azabicyclo [2.2.2]octane-3-carbonyl)-2-fluoro-phenyl]-4-[[5-(4-methyl-piperazin-1-yl)-2-pyridyl]amino]-6H-1,6-naphthyridin 5-one]
8 | ≤ 100 | CN1CCN(c2ccc(Nc3cc(-c4ccc(C(=O)N5CC6C(C5)C6(F)F)cc4F)nc4cc[nH]c(=O)c34)nc2)CC1 (stereo not shown) [I-279, 2-[4-(6,6-difluoro-3-azabicyclo [3.1.0]hexane-3-carbonyl)-2-fluoro-phenyl]-4-[[5-(4-methyl-piperazin-1-yl)-2-pyridyl]amino]-6H-1,6-naphthyridin-5-one]
9 | > 1000 | Cc1cnccc1-c1cc(Nc2ccc(N3CCC(O)CC3)cn2)c2c(=O)[nH]ccc2n1 [I-280, 4-[[5-(4-hydroxy-1-piperidyl)-2-pyridyl]amino]-2-(3-methyl-4-pyridyl)-6H-1,6-naphthyridin-5-one]
10 | ≤ 100 | Cc1ccncc1-c1cc(Nc2ccc(N3CCC(O)CC3)cn2)c2c(=O)[nH]ccc2n1 [I-281, 4-[[5-(4-hydroxy-1-piperidyl)-2-pyridyl]amino]-2-(4-methyl-3-pyridyl)-6H-1,6-naphthyridin-5-one]
11 | > 1000 | O=c1[nH]ccc2nc(-c3ccnc4[nH]ccc34)cc(Nc3ccc(N4CCC(O)CC4)cn3)c12 [I-282, 4-[[5-(4-hydroxy-1-piperidyl)-2-pyridyl]amino]-2-(1H-pyrrolo [2,3-b]pyridin-4-yl)-6H-1,6-naphthyridin-5-one]
12 | ≤ 100 | Cc1c[nH]nc1-c1cc(Nc2ccc(N3CCC(O)CC3)cn2)c2c(=O)[nH]ccc2n1 [I-283, 4-[[5-(4-hydroxy-1-piperidyl)-2-pyridyl]amino]-2-(4-methyl-1H-pyrazol-3-yl)-6H-1,6-naphthyridin-5-one]
13 | > 1000 | O=c1[nH]ccc2nc(-c3cnc4ccccn34)cc(Nc3ccc(N4CCC(O)CC4)cn3)c12 [I-284, 4-[[5-(4-hydroxy-1-piperidy)-2-pyridyl]amino]-2-imidazo[1,2-a]pyridin-3-yl-6H-1,6-naphthyridin-5-one]
